# In ChEMBL document CHEMBL1155002, “Synthesis of phosphatidylated-monoterpene alcohols catalyzed by phospholipase D and their antiproliferative effects on human cancer cells” (2008):
# Activity calls are given as the source filed them. No cut-off for these calls is given here.
# Key:
# [1] = tested on: PC-3; test: Antiproliferative activity against human PC3 cells assessed as reduction of cell viability after 72 hrs by WST-1 assay relative to control; format: functional; design: concentration or dose not given beside the values
# [2] = tested on: PC-3; test: Antiproliferative activity against human PC3 cells assessed as reduction of cell viability at 400 uM after 72 hrs by WST-1 assay; format: functional, cell-based
# [3] = tested on: HL-60; test: Antiproliferative activity against human HL60 cells by WST-1 assay; format: functional, cell-based; conditions: TDE = time-dependent effect
# [4] = tested on: HL-60; test: Antiproliferative activity against human HL60 cells at 400 uM by WST-1 assay; format: functional, cell-based
# [5] = tested on: PC-3; test: Antiproliferative activity against human PC3 cells assessed as cell viability at 100 uM after 72 hrs by WST-1 assay; format: functional, cell-based
SMILES,Activity [1] [%],Activity [2],Activity [3],Activity [4],Activity [5]
CC1(C)C2CC=C(CO)C1C2 (configuration not stated) [MYRTENOL],10,inactive,tde,inactive,
CC(C)=CCC/C(C)=C\COP(=O)(O)OCC(COC=O)OC=O (configuration not stated),,,,,Active
CC(C)=CCC/C(C)=C\CO [NEROL],10,inactive,tde,inactive,
C=C(C)[C@@H]1CC=C(CO)CC1 [PERILLYL ALCOHOL],10,inactive,tde,inactive,
CC(C)=CCC/C(C)=C/CO [GERANIOL],10,inactive,tde,inactive,
CC(C)=CCC/C(C)=C/COP(=O)(O)OCC(COC=O)OC=O (configuration not stated),,,,,Active
CC1(C)C2CC=C(COP(=O)(O)OCC(COC=O)OC=O)C1C2 (configuration not stated) [PHOSPHATIDYL MYRTENOL],10,,,,Active
C=C(C)C1CC=C(COP(=O)(O)OCC(COC=O)OC=O)CC1 (configuration not stated) [PHOSPHATIDYL PERILLYL ALCOHOL],10,,,,Active
